Test results as given in patent publication US11661426B2, “Imidazole-containing inhibitors of ALK2 kinase” (BioCryst Pharmaceuticals, Inc., priority 2017, dated 2023).

Target: ALK2 (Homo sapiens (Human), UniProt Q04771)
Test: ALK2 inhibition, LanthaScreen Eu Kinase Binding Assay (ThermoFisher Scientific / Life Technologies)
Details: read-out: Measured Ki (IC50) Value for Compounds: IC50
Method: Biochemical assays to measure the inhibitory effects of the compounds were performed by ThermoFisher Scientific (Life Technologies). ALK2 inhibition was tested using LanthaScreen™ Eu Kinase Binding Assay screening protocol.

Sequence of ALK2 (Q04771 21-509): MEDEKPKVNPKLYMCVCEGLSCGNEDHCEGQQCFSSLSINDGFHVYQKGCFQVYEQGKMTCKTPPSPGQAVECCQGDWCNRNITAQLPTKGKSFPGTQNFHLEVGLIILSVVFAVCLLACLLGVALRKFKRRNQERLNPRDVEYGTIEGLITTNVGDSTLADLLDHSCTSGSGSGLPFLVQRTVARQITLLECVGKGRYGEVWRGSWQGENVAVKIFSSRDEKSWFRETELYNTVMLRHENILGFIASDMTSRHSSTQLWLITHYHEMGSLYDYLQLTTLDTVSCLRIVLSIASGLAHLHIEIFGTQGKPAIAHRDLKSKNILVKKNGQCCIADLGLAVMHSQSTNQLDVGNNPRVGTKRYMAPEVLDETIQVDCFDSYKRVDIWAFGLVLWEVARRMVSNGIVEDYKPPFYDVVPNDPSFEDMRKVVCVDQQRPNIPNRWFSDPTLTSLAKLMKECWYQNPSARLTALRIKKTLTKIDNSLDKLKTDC

IC50 [nM] | Structure (SMILES)
< 100 | COc1cc(-n2cnc(Nc3nc(N4CCC[C@H]4CO)c4cccnc4n3)c2)cc(OC)c1OC [Compound 174b, (S)-(1-(2-((1-(3,4,5-trimethoxyphenyl)-1H-imidazol-4-yl)amino)pyrido[2,3-d]pyrimidin-4-yl)pyrrolidin-2-yl)methanol]
< 100 | COc1cc(-n2cnc(Nc3nc(N4CCC[C@H]4CO)c4ncccc4n3)c2)cc(OC)c1OC [Compound 175b, (S)-(1-(2-((1-(3,4,5-trimethoxyphenyl)-1H-imidazol-4-yl)amino)pyrido[3,2-d]pyrimidin-4-yl)pyrrolidin-2-yl)methanol]
100 to 1000 | COc1cc(-n2cnc(Nc3nc(N4CCC[C@@H]4C(N)=O)c4cccn4n3)c2)cc(OC)c1OC [Compound 176b, (R)-1-(2-((1-(3,4,5-trimethoxyphenyl)-1H-imidazol-4-yl)amino)pyrrolo[2,1-f][1,2,4]triazin-4-yl)pyrrolidine-2-carboxamide]
< 100 | COc1cc(-n2cnc(Nc3nc4c(c(N5CCC[C@H]5CO)n3)CN(Cc3ccccc3)CC4)c2)cc(OC)c1OC [Compound 177b, (S)-(1-(6-benzyl-2-((1-(3,4,5-trimethoxyphenyl)-1H-imidazol-4-yl)amino)-5,6,7,8-tetrahydropyrido[4,3-d]pyrimidin-4-yl)pyrrolidin-2-yl)methanol]
100 to 1000 | COc1cc(-n2cnc(Nc3ccc4ccccc4c3)c2)cc(OC)c1OC [Compound 178b, N-(naphthalen-2-yl)-1-(3,4,5-trimethoxyphenyl)-1H-imidazol-4-amine]
< 100 | COc1cc(-n2cnc(Nc3ccc4ccccc4n3)c2)cc(OC)c1OC [Compound 179b, N-(1-(3,4,5-trimethoxyphenyl)-1H-imidazol-4-yl)quinolin-2-amine]
< 100 | COc1cc(-n2cnc(Nc3nc(N4CCC[C@H]4CO)c4c(ccn4S(=O)(=O)c4ccc(C)cc4)n3)c2)cc(OC)c1OC [Compound 180b, (S)-(1-(5-tosyl-2-((1-(3,4,5-trimethoxyphenyl)-1H-imidazol-4-yl)amino)-5H-pyrrolo[3,2-d]pyrimidin-4-yl)pyrrolidin-2-yl)methanol]
< 100 | COc1cc(-n2cnc(Nc3nc4c(c(N5CCC[C@H]5CO)n3)CN(C(=O)OC(C)(C)C)CC4)c2)cc(OC)c1OC [Compound 181c, (S)-tert-butyl 4-(2-(hydroxymethyl)pyrrolidin-1-yl)-2-((1-(3,4,5-trimethoxyphenyl)-1H-imidazol-4-yl)amino)-7,8-dihydropyrido[4,3-d]pyrimidine-6(5H)-carboxylate]
< 100 | COc1cc(-n2cnc(Nc3nc4c(c(N5CCC[C@H]5CO)n3)CNCC4)c2)cc(OC)c1OC [Compound 181d, (S)-(1-(2-((1-(3,4,5-trimethoxyphenyl)-1H-imidazol-4-yl)amino)-5,6,7,8-tetrahydropyrido[4,3-d]pyrimidin-4-yl)pyrrolidin-2-yl)methanol]
< 100 | COc1cc(-n2cnc(Nc3nc4c(c(N5CCC[C@H]5CO)n3)CCN(C(=O)OC(C)(C)C)C4)c2)cc(OC)c1OC [Compound 182c, (S)-tert-butyl 4-(2-(hydroxymethyl)pyrrolidin-1-yl)-2-((1-(3,4,5-trimethoxyphenyl)-1H-imidazol-4-yl)amino)-5,6-dihydropyrido[3,4-d]pyrimidine-7(8H)-carboxylate]

Second part, the compound before the results:

Structure (SMILES) | IC50 [nM]
COc1cc(-n2cnc(Nc3nc(N4CCC[C@H]4C(N)=O)nc4scnc34)c2)cc(OC)c1OC [Compound 158b, (S)-1-(7-((1-(3,4,5-trimethoxyphenyl)-1H-imidazol-4-yl)amino)thiazolo[5,4-d]pyrimidin-5-yl)pyrrolidine-2-carboxamide] | < 100
COc1cc(-n2cnc(Nc3nc(N4CCC[C@H]4CO)c4ccn(S(=O)(=O)c5ccc(C)cc5)c4n3)c2)cc(OC)c1OC [Compound 159b, (S)-(1-(7-tosyl-2-((1-(3,4,5-trimethoxyphenyl)-1H-imidazol-4-yl)amino)-7H-pyrrolo[2,3-d]pyrimidin-4-yl)pyrrolidin-2-yl)methanol] | > 1000
COc1cc(-n2cnc(Nc3nc(N4CCC[C@H]4CO)c4cc[nH]c4n3)c2)cc(OC)c1OC [Compound 159c, (S)-(1-(2-((1-(3,4,5-trimethoxyphenyl)-1H-imidazol-4-yl)amino)-7H-pyrrolo[2,3-d]pyrimidin-4-yl)pyrrolidin-2-yl)methanol] | < 100
COc1cc(-n2cnc(Nc3nc(N4CCC[C@H]4CO)nc4ccn(S(=O)(=O)c5ccc(C)cc5)c34)c2)cc(OC)c1OC [Compound 160c, (S)-(1-(5-tosyl-4-((1-(3,4,5-trimethoxyphenyl)-1H-imidazol-4-yl)amino)-5H-pyrrolo[3,2-d]pyrimidin-2-yl)pyrrolidin-2-yl)methanol] | > 1000
COc1cc(-n2cnc(Nc3nc(N4CCC[C@H]4CO)nc4cc[nH]c34)c2)cc(OC)c1OC [Compound 160d, (S)-(1-(4-((1-(3,4,5-trimethoxyphenyl)-1H-imidazol-4-yl)amino)-5H-pyrrolo[3,2-d]pyrimidin-2-yl)pyrrolidin-2-yl)methanol] | < 100
COc1cc(-n2cnc(Nc3nc(N4CCC[C@H]4C(N)=O)nc4cccnc34)c2)cc(OC)c1OC [Compound 161a, (S)-1-(4-((1-(3,4,5-trimethoxyphenyl)-1H-imidazol-4-yl)amino)pyrido[3,2-d]pyrimidin-2-yl)pyrrolidine-2-carboxamide] | 100 to 1000
COc1cc(-n2cnc(Nc3nc(N4CCC[C@H]4C(N)=O)nc4ccn(S(=O)(=O)c5ccc(C)cc5)c34)c2)cc(OC)c1OC [Compound 162a, (S)-1-(5-tosyl-4-((1-(3,4,5-trimethoxyphenyl)-1H-imidazol-4-yl)amino)-5H-pyrrolo[3,2-d]pyrimidin-2-yl)pyrrolidine-2-carboxamide] | 100 to 1000
COc1cc(-n2cnc(Nc3nc(N4CCC[C@H]4C(N)=O)nc4cc[nH]c34)c2)cc(OC)c1OC [Compound 162b, (S)-1-(4-((1-(3,4,5-trimethoxyphenyl)-1H-imidazol-4-yl)amino)-5H-pyrrolo[3,2-d]pyrimidin-2-yl)pyrrolidine-2-carboxamide] | < 100
COc1cc(-n2cnc(Nc3nc(N4CCCC4)nc4c3ccn4S(=O)(=O)c3ccc(C)cc3)c2)cc(OC)c1OC [Compound 163a, 2-(pyrrolidin-1-yl)-7-tosyl-N-(1-(3,4,5-trimethoxyphenyl)-1H-imidazol-4-yl)-7H-pyrrolo[2,3-d]pyrimidin-4-amine] | 100 to 1000
COc1cc(-n2cnc(Nc3nc(N4CCC[C@H]4CO)nc4scnc34)c2)cc(OC)c1OC [Compound 164a, (S)-(1-(7-((1-(3,4,5-trimethoxyphenyl)-1H-imidazol-4-yl)amino)thiazolo[5,4-d]pyrimidin-5-yl)pyrrolidin-2-yl)methanol] | < 100
COc1cc(-n2cnc(Nc3nc4c(c(N5CCC[C@H]5CO)n3)CCN(Cc3ccccc3)C4)c2)cc(OC)c1OC [Compound 165b, (S)-(1-(7-benzyl-2-((1-(3,4,5-trimethoxyphenyl)-1H-imidazol-4-yl)amino)-5,6,7,8-tetrahydropyrido[3,4-d]pyrimidin-4-yl)pyrrolidin-2-yl)methanol] | < 100
COc1cc(-n2cnc(Nc3nc4c(c(N5CCC[C@H]5C(N)=O)n3)CCN(Cc3ccccc3)C4)c2)cc(OC)c1OC [Compound 166b, (S)-1-(7-benzyl-2-((1-(3,4,5-trimethoxyphenyl)-1H-imidazol-4-yl)amino)-5,6,7,8-tetrahydropyrido[3,4-d]pyrimidin-4-yl)pyrrolidine-2-carboxamide] | < 100
COc1cc(-n2cnc(Nc3nc(N4CCC[C@H]4CO)nn4cccc34)c2)cc(C#N)c1OC [Compound 167f, (S)-5-(4-((2-(2-(hydroxymethyl)pyrrolidin-1-yl)pyrrolo[2,1-f][1,2,4]triazin-4-yl)amino)-1H-imidazol-1-yl)-2,3-dimethoxybenzonitrile] | > 1000
COc1cc(-n2cnc(Nc3nc(N4CCCC4)c4cccn4n3)c2)cc(OC)c1OC [Compound 168b, 4-(pyrrolidin-1-yl)-N-(1-(3,4,5-trimethoxyphenyl)-1H-imidazol-4-yl)pyrrolo[2,1-f][1,2,4]triazin-2-amine] | 100 to 1000
COc1cc(-n2cnc(Nc3nc(N4CCC[C@H]4CO)nc4ncccc34)c2)cc(OC)c1OC [Compound 169c, (S)-(1-(4-((1-(3,4,5-trimethoxyphenyl)-1H-imidazol-4-yl)amino)pyrido[2,3-d]pyrimidin-2-yl)pyrrolidin-2-yl)methanol] | < 100
COc1cc(-n2cnc(Nc3nc(N4CCC[C@H]4C(N)=O)nc4ncccc34)c2)cc(OC)c1OC [Compound 170a, (S)-1-(4-((1-(3,4,5-trimethoxyphenyl)-1H-imidazol-4-yl)amino)pyrido[2,3-d]pyrimidin-2-yl)pyrrolidine-2-carboxamide] | < 100
COc1cc(-n2cnc(Nc3nc(N4CCC[C@H]4C(N)=O)nc4cc(OC(C)C)ccc34)c2)cc(OC)c1OC [Compound 171a, (S)-1-(7-isopropoxy-4-((1-(3,4,5-trimethoxyphenyl)-1H-imidazol-4-yl)amino)quinazolin-2-yl)pyrrolidine-2-carboxamide] | < 100
OC[C@@H]1CCCN1c1nc(Nc2cn(-c3ccccc3)cn2)nn2cccc12 [Compound 172a, (S)-(1-(2-((1-phenyl-1H-imidazol-4-yl)amino)pyrrolo[2,1-f][1,2,4]triazin-4-yl)pyrrolidin-2-yl)methanol] | 100 to 1000
COc1cc(-n2cnc(Nc3nc(N4CCC[C@H]4C(N)=O)c4ccn(S(=O)(=O)c5ccc(C)cc5)c4n3)c2)cc(OC)c1OC [Compound 173b, (S)-1-(7-tosyl-2-((1-(3,4,5-trimethoxyphenyl)-1H-imidazol-4-yl)amino)-7H-pyrrolo[2,3-d]pyrimidin-4-yl)pyrrolidine-2-carboxamide] | > 1000
COc1cc(-n2cnc(Nc3nc(N4CCC[C@H]4C(N)=O)c4cc[nH]c4n3)c2)cc(OC)c1OC [Compound 173c, (S)-1-(2-((1-(3,4,5-trimethoxyphenyl)-1H-imidazol-4-yl)amino)-7H-pyrrolo[2,3-d]pyrimidin-4-yl)pyrrolidine-2-carboxamide] | < 100
